The values below are quoted from earlier work in US9315472B2, “1,3,5-triazinane-2,4,6-trione derivatives and uses thereof” (Massachusetts Institute of Technology, priority 2013, dated 2016).

Read-outs that look alike come from different tables or passages of the source.

For data set [1] the following is noted: mouse, in vivo, po.
The conditions of data set [2]: rat, in vivo, po.

Take `O=c1n(CC2CO2)c(=O)n(CC2CO2)c(=O)n1CC1CO1` (centres unmarked) [Compound 1]: the tolerability result in data set [1] and in data set [2] was “tolerated” in each case.
